Values of other authors in patent publication US20040175402A1, “Formulation” (priority 2001, published 2004).

Columns and labels:
[1] = tested on: human breast cancer cells; details: human breast cancer cells in vitro

## C[C@]12CC[C@@H]3c4ccc(O)cc4C[C@@H](CCCCCCCCC[S+]([O-])CCCC(F)(F)C(F)(F)F)[C@H]3[C@@H]1CC[C@@H]2O (stereo partly drawn) [Fulvestrant, 7α-[9-(4,4,5,5,5-Pentafluoropentylsulphinyl)nonyl]oestra-1,3-5(10)-triene-3,17β-diol]
rats
  block of uterotrophic action of oestradiol: blocks completely the uterotrophic action of oestradiol
mice
  block of uterotrophic action of oestradiol: blocks completely the uterotrophic action of oestradiol
monkeys
  block of uterotrophic action of oestradiol: blocks completely the uterotrophic action of oestradiol
[1]
  block of growth stimulatory action of oestradiol: completely blocks the growth stimulatory action of oestradiol
